Patent US20240373847A1, “HERBICIDAL MALONAMIDES” (BASF SE, priority 2021, published 2024)

Tests used:
Type in all cases: in vivo
[1] = system: Digitaria sanguinalis (DIGSA); test: greenhouse test, pre-emergence treatment; settings: 1.000 kg/ha, pre-emergence method; scale from 0 to 100
Excerpt: (§1) The culture containers used were plastic flowerpots containing loamy sand with approximately 3.0% of humus as the substrate. The seeds of the test plants were sown separately for each species.
(§2) For the pre-emergence treatment, the active ingredients, which had been suspended or emulsified in water, were applied directly after sowing by means of finely distributing nozzles. The containers were irrigated gently to promote germination and growth and subsequently covered with transparent plastic hoods until the test plants had rooted.
(§3) This cover caused uniform germination of the test plants, unless this had been impaired by the active ingredients.
(§4) Depending on the species, the test plants were kept at 10-25° C. or 20-35° C., respectively.
(§5) The test period extended over 2 to 4 weeks. During this time, the test plants were tended, and their response to the individual treatments was evaluated.
(§6) Evaluation was carried out using a scale from 0 to 100. 100 means no emergence of the test plants, or complete destruction of at least the aerial moieties, and 0 means no damage, or normal course of growth. A good herbicidal activity is given at values of 70 to <90 and a very good herbicidal activity is given at values of 90 to 100.
(§7) The test plants used in the greenhouse experiments were of the following species: […]

[2] = system: Lolium multiflorum (LOLMU); test: greenhouse test, pre-emergence treatment; settings: 1.000 kg/ha, pre-emergence method; scale from 0 to 100
Excerpt: as §1, §2, §3, §4, §5, §6, §7

[3] = system: Echinocloa crus-galli (ECHCG); test: greenhouse test, post-emergence treatment; settings: 0.500 kg/ha, post-emergence method; scale from 0 to 100
Excerpt: as §1
(§8) For the post-emergence treatment, the test plants were first grown to a height of 3 to 15 cm, depending on the plant habit, and only then treated with the active ingredients which had been suspended or emulsified in water. For this purpose, the test plants were either sown directly and grown in the same containers, or they were first grown separately as seedlings and transplanted into the test containers a few days prior to treatment.
as §4, §5, §6, §7

[4] = system: Abutilon theophrasti (ABUTH); test: greenhouse test, pre-emergence treatment; settings: 0.125 kg/ha, pre-emergence method; scale from 0 to 100
Excerpt: as §1, §2, §3, §4, §5, §6, §7

[5] = system: Amaranthus retroflexus (AMARE); test: greenhouse test, pre-emergence treatment; settings: pre-emergence method, scale from 0 to 100
Excerpt: as §1, §2, §3, §4, §5, §6, §7

[6] = system: Echinocloa crus-galli (ECHCG); test: greenhouse test, pre-emergence treatment; settings: 0.125 kg/ha, pre-emergence method; scale from 0 to 100
Excerpt: as §1, §2, §3, §4, §5, §6, §7

[7] = system: Setaria viridis (SETVI); test: greenhouse test, pre-emergence treatment; settings: 0.250 kg/ha, pre-emergence method; scale from 0 to 100
Excerpt: as §1, §2, §3, §4, §5, §6, §7

[8] = system: Setaria viridis (SETVI); test: greenhouse test, post-emergence treatment; settings: 1.000 kg/ha, post-emergence method; scale from 0 to 100
Excerpt: as §1, §8, §4, §5, §6, §7

[9] = system: Amaranthus retroflexus (AMARE); test: greenhouse test, post-emergence treatment; settings: 1.000 kg/ha, post-emergence method; scale from 0 to 100
Excerpt: as §1, §8, §4, §5, §6, §7

[10] = system: Setaria faberi (SETFA); test: greenhouse test, pre-emergence treatment; settings: 0.125 kg/ha, pre-emergence method; scale from 0 to 100
Excerpt: as §1, §2, §3, §4, §5, §6, §7

[11] = system: Apera spica-venti (APESV); test: greenhouse test, pre-emergence treatment; settings: 0.125 kg/ha, pre-emergence method; scale from 0 to 100
Excerpt: as §1, §2, §3, §4, §5, §6, §7

CCC(C(=O)Nc1cccc(F)c1)C(=O)N[C@H]1C=C[C@@H](C(=O)O)C1 (stereo partly shown) [I.138]
herbicidal activity against DIGSA [1]: good herbicidal activity (A good herbicidal activity is given at values of 70 to <90)
herbicidal activity against LOLMU [2]: good herbicidal activity (A good herbicidal activity is given at values of 70 to <90)

COC(=O)CC(C)NC(=O)C(C(=O)Nc1cc(Cl)cc(Cl)c1)C1CC1 (stereo not shown) [I.3]
herbicidal activity against ECHCG [3]: good herbicidal activity (A good herbicidal activity is given at values of 70 to <90)

CONC(=O)CC(C)NC(=O)C(C)C(=O)Nc1cc(F)cc(F)c1 (stereo not shown) [I.79]
herbicidal activity against ABUTH [4]: good herbicidal activity (A good herbicidal activity is given at values of 70 to <90)

CCS(=O)(=O)NC(=O)CC(C)NC(=O)C(C)C(=O)Nc1cc(C)cc(F)c1 (stereo not shown) [I.14]
herbicidal activity against AMARE ([5]; 0.125 kg/ha): very good herbicidal activity (a very good herbicidal activity is given at values of 90 to 100)
herbicidal activity against ECHCG [6]: good herbicidal activity (A good herbicidal activity is given at values of 70 to <90)

COC(=O)C1C=CC(NC(=O)C(C)C(=O)Nc2cc(F)cc(F)c2)C1 (mixture of isomers) [I.153]
herbicidal activity against SETVI [7]: very good herbicidal activity (a very good herbicidal activity is given at values of 90 to 100)

CCC(C(=O)Nc1cc(C)cc(F)c1)C(=O)NC(C)CCC(=O)O (stereo not shown) [I.136]
herbicidal activity against SETVI [8]: good herbicidal activity (A good herbicidal activity is given at values of 70 to <90)

CCC(C(=O)Nc1cc(F)cc(F)c1)C(=O)NC(C)CC(=O)O (stereo not shown) [I.144]
herbicidal activity against AMARE [9]: good herbicidal activity (A good herbicidal activity is given at values of 70 to <90)

COC(=O)CC(C)NC(=O)C(C)C(=O)Nc1cc(Cl)cc(Cl)c1 (stereo not shown) [I.1]
herbicidal activity against AMARE ([5]; 0.500 kg/ha): good herbicidal activity (A good herbicidal activity is given at values of 70 to <90)

CCC(C(=O)Nc1cc(Cl)cc(Cl)c1)C(=O)N[C@H]1C=C[C@@H](C(=O)OC)C1 (stereo partly drawn) [I.90, methyl (1S,4R)-4-[2-[(3,5-dichlorophenyl)carbamoyl]butanoylamino]cyclopent-2-ene-1-carboxylate]
herbicidal activity against SETFA [10]: good herbicidal activity (A good herbicidal activity is given at values of 70 to <90)

CCc1cccc(NC(=O)C(CC)C(=O)NC(C)CCC(=O)OC)c1 (stereo not shown) [I.117]
herbicidal activity against APESV [11]: very good herbicidal activity (a very good herbicidal activity is given at values of 90 to 100)

CCC(C(=O)Nc1cccc(OC(F)(F)F)c1)C(=O)NC(C)CCC(=O)O (stereo not shown) [I.128]
herbicidal activity against AMARE ([5]; 1.000 kg/ha): very good herbicidal activity (a very good herbicidal activity is given at values of 90 to 100)
